# Paper PMC6199744, “Development of Chemical Proteomics for the Folateome and Analysis of the Kinetoplastid Folateome” (ACS Infectious Diseases, 2018)
# Like-named read-outs stand apart in the source and are kept apart here.
# What was measured:
# Assay type in all cases: binding
# [1] = target: T1, HeLa cell extract proteins (Homo sapiens, UniProt O00299)
# T1 construct: endogenous in cells; host or cells: HeLa cell extract
# [2] = target: T2, HeLa cell extract proteins (Homo sapiens, UniProt O75152)
# T2 construct: endogenous in cells; host or cells: HeLa cell extract
# [3] = target: T3, HeLa cell extract proteins (Homo sapiens, UniProt P05141)
# T3 construct: endogenous in cells; host or cells: HeLa cell extract
# T3 sequence (P05141 1-298): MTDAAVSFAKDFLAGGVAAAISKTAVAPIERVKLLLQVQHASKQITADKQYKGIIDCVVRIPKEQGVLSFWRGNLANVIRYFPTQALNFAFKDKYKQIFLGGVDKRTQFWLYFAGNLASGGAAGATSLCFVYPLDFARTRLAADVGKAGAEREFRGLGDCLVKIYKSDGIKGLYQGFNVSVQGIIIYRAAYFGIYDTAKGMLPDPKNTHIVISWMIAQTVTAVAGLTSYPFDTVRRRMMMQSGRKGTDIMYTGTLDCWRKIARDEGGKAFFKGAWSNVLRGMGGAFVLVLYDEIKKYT
# [4] = target: T4, HeLa cell extract proteins (Homo sapiens, UniProt P27708)
# T4 construct: endogenous in cells; host or cells: HeLa cell extract
# [5] = target: T5, HeLa cell extract proteins (Homo sapiens, UniProt P46940)
# T5 construct: endogenous in cells; host or cells: HeLa cell extract
# [6] = target: T6, HeLa cell extract proteins (Homo sapiens, UniProt P48047)
# T6 construct: endogenous in cells; host or cells: HeLa cell extract
# T6 sequence (P48047 24-213): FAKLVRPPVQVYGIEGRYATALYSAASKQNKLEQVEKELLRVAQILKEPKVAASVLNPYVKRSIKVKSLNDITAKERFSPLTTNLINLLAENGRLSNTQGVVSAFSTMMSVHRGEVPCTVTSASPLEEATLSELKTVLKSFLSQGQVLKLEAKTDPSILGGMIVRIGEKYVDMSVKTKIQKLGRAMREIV
# [7] = target: T7, HeLa cell extract proteins (Homo sapiens, UniProt P49721)
# T7 construct: endogenous in cells; host or cells: HeLa cell extract
# [8] = target: T8, HeLa cell extract proteins (Homo sapiens, UniProt P49915)
# T8 construct: endogenous in cells; host or cells: HeLa cell extract
# [9] = target: T9, HeLa cell extract proteins (Homo sapiens, UniProt P61978)
# T9 construct: endogenous in cells; host or cells: HeLa cell extract
# [10] = target: T10, HeLa cell extract proteins (Homo sapiens, UniProt Q07021)
# T10 construct: endogenous in cells; host or cells: HeLa cell extract
# T10 sequence (Q07021 74-282): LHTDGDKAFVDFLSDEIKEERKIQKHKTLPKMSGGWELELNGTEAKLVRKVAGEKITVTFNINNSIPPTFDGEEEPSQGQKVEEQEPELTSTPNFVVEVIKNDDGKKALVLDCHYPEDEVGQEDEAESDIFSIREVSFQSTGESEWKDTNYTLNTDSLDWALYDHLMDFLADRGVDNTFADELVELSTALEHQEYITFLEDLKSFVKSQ
# [11] = target: T11, HeLa cell extract proteins (Homo sapiens, UniProt Q8TEX9)
# T11 construct: endogenous in cells; host or cells: HeLa cell extract
# T11 sequence (Q8TEX9 1-1081): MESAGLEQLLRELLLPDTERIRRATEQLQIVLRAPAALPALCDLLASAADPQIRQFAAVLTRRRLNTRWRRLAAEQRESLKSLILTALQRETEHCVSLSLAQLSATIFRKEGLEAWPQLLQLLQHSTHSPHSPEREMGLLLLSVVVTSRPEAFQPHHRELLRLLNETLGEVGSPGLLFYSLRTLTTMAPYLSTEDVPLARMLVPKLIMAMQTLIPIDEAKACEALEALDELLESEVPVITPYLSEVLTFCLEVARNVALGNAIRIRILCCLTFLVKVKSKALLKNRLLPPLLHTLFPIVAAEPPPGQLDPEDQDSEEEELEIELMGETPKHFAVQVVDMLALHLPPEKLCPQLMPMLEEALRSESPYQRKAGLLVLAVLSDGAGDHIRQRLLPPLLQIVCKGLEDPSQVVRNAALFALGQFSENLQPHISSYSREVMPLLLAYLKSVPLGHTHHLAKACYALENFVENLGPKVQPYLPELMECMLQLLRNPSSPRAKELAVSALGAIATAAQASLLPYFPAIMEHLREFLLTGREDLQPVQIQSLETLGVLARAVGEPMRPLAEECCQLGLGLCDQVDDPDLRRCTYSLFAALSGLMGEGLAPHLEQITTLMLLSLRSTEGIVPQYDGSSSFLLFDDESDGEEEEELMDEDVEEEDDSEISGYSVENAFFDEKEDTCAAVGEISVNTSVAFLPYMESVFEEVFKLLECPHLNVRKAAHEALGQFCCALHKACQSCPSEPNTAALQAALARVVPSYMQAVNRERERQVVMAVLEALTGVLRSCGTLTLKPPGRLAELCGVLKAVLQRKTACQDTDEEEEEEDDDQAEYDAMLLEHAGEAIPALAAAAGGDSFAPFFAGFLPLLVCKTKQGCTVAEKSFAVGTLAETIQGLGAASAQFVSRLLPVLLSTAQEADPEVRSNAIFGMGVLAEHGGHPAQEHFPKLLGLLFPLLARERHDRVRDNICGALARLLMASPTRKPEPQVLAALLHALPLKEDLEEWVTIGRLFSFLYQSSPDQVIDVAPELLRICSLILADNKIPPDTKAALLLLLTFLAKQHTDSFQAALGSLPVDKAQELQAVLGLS
# [12] = target: T12, HeLa cell extract proteins (Homo sapiens, UniProt Q92947)
# T12 construct: endogenous in cells; host or cells: HeLa cell extract
# T12 sequence (Q92947 45-438): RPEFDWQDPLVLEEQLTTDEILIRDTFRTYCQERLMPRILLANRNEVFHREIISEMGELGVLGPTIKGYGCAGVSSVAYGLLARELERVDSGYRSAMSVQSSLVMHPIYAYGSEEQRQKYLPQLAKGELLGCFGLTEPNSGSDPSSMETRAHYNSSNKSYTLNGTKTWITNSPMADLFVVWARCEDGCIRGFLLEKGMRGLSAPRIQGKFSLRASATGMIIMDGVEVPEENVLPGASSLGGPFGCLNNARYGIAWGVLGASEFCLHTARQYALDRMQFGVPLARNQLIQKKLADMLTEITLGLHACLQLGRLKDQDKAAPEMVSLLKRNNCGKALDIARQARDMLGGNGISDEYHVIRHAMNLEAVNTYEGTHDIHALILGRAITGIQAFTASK
# [13] = target: T13, HeLa cell extract proteins (Homo sapiens, UniProt Q9Y265)
# T13 construct: endogenous in cells; host or cells: HeLa cell extract
# [14] = HeLa, protein ZC3H11A (ZINC FINGER CCCH DOMAIN-CONTAINING PROTEIN 11A)
# T8 sequence (P49915 whole entry): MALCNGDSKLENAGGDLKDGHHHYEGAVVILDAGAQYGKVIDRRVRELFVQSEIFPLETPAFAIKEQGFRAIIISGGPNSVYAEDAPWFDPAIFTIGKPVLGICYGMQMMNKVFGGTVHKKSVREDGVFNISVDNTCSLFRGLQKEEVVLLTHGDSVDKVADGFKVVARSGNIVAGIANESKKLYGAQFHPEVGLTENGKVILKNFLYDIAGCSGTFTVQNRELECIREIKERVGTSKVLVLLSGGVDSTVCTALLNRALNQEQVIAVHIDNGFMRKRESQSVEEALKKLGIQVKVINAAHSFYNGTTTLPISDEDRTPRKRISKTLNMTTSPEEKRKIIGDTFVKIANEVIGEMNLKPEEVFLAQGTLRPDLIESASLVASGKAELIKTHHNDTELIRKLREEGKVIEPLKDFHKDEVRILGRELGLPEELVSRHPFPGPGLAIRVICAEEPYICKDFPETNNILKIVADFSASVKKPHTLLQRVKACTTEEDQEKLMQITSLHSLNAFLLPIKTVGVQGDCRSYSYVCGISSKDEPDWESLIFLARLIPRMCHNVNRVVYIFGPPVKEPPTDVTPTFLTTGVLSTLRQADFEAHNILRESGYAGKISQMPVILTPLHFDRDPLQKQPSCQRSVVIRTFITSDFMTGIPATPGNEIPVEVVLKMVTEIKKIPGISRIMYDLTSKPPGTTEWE
# T4 sequence (P27708 whole entry): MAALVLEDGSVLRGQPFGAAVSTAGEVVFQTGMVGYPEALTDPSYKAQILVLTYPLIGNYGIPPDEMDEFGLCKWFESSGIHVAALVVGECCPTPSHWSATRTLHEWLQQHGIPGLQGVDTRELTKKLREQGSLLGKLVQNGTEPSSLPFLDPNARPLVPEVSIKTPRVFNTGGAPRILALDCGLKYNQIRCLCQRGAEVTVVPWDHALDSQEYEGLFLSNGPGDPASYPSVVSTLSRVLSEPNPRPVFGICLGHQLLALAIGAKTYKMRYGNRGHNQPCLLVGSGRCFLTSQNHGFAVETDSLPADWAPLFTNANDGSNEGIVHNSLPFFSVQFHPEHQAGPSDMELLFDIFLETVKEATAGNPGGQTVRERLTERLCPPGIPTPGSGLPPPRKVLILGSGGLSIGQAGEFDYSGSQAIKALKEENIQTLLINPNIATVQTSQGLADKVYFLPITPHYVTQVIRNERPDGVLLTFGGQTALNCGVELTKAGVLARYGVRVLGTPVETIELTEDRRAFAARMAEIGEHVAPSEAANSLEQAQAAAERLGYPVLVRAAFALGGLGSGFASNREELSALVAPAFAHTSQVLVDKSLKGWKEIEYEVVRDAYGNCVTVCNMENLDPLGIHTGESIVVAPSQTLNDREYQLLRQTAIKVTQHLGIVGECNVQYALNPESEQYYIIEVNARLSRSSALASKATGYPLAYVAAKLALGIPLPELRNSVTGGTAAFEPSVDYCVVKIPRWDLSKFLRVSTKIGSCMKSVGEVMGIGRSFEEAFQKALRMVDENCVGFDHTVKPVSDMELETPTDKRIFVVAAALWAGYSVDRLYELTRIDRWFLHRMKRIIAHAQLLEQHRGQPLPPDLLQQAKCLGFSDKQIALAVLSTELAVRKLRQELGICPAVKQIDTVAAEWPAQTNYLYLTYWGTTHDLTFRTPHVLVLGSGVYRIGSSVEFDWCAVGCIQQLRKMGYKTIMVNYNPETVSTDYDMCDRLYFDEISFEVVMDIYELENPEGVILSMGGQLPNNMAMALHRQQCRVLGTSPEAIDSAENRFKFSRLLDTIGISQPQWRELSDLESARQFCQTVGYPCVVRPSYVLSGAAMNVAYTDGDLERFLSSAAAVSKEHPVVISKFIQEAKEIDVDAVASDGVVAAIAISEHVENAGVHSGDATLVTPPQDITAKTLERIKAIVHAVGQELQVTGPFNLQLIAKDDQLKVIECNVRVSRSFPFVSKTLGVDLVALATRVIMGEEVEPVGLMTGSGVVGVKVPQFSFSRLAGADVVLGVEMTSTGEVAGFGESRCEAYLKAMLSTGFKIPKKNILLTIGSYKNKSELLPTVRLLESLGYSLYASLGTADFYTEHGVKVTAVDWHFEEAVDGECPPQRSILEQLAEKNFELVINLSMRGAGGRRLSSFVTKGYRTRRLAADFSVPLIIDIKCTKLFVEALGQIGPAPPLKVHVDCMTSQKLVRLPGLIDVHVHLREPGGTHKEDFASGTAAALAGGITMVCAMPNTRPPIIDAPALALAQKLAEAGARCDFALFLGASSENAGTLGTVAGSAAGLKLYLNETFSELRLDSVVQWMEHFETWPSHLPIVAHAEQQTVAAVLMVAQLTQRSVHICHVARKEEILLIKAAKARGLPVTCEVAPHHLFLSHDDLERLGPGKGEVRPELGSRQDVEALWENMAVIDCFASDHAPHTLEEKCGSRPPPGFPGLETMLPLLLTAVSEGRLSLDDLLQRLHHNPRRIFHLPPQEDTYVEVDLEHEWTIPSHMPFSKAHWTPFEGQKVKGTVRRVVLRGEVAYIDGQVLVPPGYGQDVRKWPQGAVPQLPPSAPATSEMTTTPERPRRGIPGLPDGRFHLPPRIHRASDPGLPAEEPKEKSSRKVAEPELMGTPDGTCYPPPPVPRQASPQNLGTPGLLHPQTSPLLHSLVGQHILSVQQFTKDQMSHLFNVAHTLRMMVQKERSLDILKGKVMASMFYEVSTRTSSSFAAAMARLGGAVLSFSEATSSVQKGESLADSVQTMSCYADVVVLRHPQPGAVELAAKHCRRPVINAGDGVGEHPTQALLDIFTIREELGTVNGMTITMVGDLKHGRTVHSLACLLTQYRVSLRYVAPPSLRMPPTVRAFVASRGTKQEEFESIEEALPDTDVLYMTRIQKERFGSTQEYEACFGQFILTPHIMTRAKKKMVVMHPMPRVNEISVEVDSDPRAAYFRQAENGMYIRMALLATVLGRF
# T5 sequence (P46940 whole entry): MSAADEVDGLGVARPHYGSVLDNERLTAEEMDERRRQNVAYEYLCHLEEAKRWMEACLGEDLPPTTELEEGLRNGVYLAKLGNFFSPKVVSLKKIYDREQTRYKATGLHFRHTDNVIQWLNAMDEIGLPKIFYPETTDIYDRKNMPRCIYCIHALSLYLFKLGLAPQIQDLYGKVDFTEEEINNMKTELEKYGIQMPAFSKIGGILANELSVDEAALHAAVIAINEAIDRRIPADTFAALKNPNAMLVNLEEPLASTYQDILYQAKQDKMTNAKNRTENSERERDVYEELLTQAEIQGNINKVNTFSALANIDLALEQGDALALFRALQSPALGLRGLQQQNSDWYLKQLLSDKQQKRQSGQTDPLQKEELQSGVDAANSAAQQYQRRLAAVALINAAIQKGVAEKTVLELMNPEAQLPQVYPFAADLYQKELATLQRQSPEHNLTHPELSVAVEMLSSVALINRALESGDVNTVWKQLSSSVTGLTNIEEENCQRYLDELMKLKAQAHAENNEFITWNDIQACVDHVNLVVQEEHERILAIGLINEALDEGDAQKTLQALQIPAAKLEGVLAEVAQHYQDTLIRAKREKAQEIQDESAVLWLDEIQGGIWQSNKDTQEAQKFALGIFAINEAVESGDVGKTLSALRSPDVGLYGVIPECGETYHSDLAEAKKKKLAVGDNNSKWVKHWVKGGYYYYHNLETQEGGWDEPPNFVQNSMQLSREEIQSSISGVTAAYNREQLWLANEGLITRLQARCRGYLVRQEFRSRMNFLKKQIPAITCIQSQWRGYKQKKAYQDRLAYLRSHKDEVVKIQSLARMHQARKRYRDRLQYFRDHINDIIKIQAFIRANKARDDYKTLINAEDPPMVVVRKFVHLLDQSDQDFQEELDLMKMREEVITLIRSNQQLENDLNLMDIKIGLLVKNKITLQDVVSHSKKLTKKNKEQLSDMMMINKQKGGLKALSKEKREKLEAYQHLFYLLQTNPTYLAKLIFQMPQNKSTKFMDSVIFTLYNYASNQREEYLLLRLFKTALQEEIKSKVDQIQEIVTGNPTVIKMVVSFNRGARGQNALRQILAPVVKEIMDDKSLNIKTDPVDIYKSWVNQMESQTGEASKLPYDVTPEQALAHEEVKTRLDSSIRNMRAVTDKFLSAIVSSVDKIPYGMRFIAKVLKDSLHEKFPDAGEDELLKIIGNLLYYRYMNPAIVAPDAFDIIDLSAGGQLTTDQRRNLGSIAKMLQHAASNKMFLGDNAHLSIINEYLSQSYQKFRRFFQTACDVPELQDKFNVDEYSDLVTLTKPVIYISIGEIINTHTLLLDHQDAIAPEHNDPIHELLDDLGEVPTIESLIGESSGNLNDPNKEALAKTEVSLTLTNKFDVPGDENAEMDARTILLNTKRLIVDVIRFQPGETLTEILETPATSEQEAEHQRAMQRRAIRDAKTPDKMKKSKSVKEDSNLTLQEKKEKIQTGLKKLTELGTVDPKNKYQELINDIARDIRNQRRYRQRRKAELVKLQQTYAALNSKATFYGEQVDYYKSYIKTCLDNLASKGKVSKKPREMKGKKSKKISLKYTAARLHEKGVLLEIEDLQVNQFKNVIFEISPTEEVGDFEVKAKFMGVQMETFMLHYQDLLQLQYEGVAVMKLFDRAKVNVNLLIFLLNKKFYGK
# T13 sequence (Q9Y265 whole entry): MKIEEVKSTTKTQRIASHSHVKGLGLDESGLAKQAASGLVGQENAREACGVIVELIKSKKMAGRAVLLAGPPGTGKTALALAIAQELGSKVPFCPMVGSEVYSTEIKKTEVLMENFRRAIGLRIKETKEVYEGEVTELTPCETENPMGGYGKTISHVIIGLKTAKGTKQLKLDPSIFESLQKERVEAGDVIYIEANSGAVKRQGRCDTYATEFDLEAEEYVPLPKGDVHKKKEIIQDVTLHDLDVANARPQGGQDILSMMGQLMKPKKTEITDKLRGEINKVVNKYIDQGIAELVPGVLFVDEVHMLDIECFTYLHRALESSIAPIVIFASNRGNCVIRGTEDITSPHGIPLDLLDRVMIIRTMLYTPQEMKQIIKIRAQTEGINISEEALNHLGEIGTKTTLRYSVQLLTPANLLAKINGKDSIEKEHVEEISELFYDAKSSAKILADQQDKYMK
Structure (SMILES),"fold changes relative to vehicle control ([1]; HeLa, protein CLIC1)","fold changes relative to vehicle control [2, 14]","fold changes relative to vehicle control ([3]; HeLa, protein SLC25A5)","fold changes relative to vehicle control ([4]; protein CAD, HeLa)","fold changes relative to vehicle control ([5]; HeLa, protein IQGAP1)","fold changes relative to vehicle control ([6]; HeLa, captured protein ATP5O)","fold changes relative to vehicle control ([7]; HeLa, captured protein PSMB2)","fold changes relative to vehicle control ([8]; HeLa, protein GMPS)","fold changes relative to vehicle control ([9]; HeLa, protein HNRNPK)","fold changes relative to vehicle control ([10]; HeLa, protein C1QBP)","fold changes relative to vehicle control ([11]; protein IPO4, HeLa)","fold changes relative to vehicle control ([12]; HeLa, captured protein GCDH)","fold changes relative to vehicle control ([13]; HeLa, protein RUVBL1)","fold changes relative to vehicle control ([1]; protein CLIC1, HeLa)","fold changes relative to vehicle control ([2]; captured protein ZC3H11A, HeLa)","fold changes relative to vehicle control ([3]; captured protein SLC25A5, HeLa)","fold changes relative to vehicle control ([4]; captured protein CAD, HeLa)","fold changes relative to vehicle control ([5]; protein IQGAP1, HeLa)","fold changes relative to vehicle control ([6]; protein ATP5O, HeLa)","fold changes relative to vehicle control ([7]; HeLa, protein PSMB2)",other results
"Nc1nc2c(c(=O)[nH]1)N(C=O)C(CNc1ccc(C(=O)N[C@@H](CCC(=O)O)C(=O)O)cc1)CN2 (stereo partly shown) [LEU, leucovorin]",1.09,1.06,0.84,1.34,1.02,1.01,1.2,0.93,0.94,0.85,0.89,0.96,1.06,–,–,–,–,–,–,–,–
"Nc1nc2[nH]cc(CCc3ccc(C(=O)N[C@@H](CCC(=O)O)C(=O)O)cc3)c2c(=O)[nH]1 [PTX, pemetrexed]",–,–,–,–,–,–,–,–,–,–,–,–,–,–,–,–,–,–,–,–,fold changes relative to vehicle control [1]: 1.26; fold changes relative to vehicle control [2]: 0.96; fold changes relative to vehicle control [3]: 0.9; fold changes relative to vehicle control [4]: 0.52; fold changes relative to vehicle control [5]: 1.08; fold changes relative to vehicle control [6]: 1.01; fold changes relative to vehicle control [7]: 1.13; fold changes relative to vehicle control [8]: 0.99; fold changes relative to vehicle control [9]: 0.96; fold changes relative to vehicle control [10]: 0.92; fold changes relative to vehicle control [11]: 0.88; fold changes relative to vehicle control [12]: 0.75; fold changes relative to vehicle control [13]: 0.92
CCCCCCOc1ccc(Cc2cnc(N)nc2N)cc1 [compound 1],–,–,–,–,–,–,–,–,–,–,–,–,–,1.21,0.95,0.96,1.1,0.99,0.98,1.03,"fold changes relative to vehicle control ([8]; protein GMPS, HeLa): 1.37; fold changes relative to vehicle control ([9]; protein HNRNPK, HeLa): 0.99; fold changes relative to vehicle control ([10]; protein C1QBP, HeLa): 1.12; fold changes relative to vehicle control ([11]; captured protein IPO4, HeLa): 0.83; fold changes relative to vehicle control ([12]; captured protein GCDH, HeLa): 0.91; fold changes relative to vehicle control ([13]; protein RUVBL1, HeLa): 1.32"
CCCCCCOc1cccc(Cc2cnc(N)nc2N)c1 [compound 2],–,–,–,–,–,–,–,–,–,–,–,–,–,2.13,1.01,0.9,1.01,1.69,0.98,1.24,"fold changes relative to vehicle control ([8]; protein GMPS, HeLa): 1.94; fold changes relative to vehicle control ([9]; protein HNRNPK, HeLa): 1.39; fold changes relative to vehicle control ([10]; protein C1QBP, HeLa): 1.27; fold changes relative to vehicle control ([11]; captured protein IPO4, HeLa): 1.01; fold changes relative to vehicle control ([12]; captured protein GCDH, HeLa): 0.95; fold changes relative to vehicle control ([13]; protein RUVBL1, HeLa): 1.47"
Nc1nc2cccc(-c3ccccc3)c2n1Cc1ccc(Cl)c(Cl)c1 [compound 3],–,–,–,–,–,–,–,–,–,–,–,–,–,0.87,0.94,1.02,1.14,0.93,0.9,1.07,"fold changes relative to vehicle control ([8]; protein GMPS, HeLa): 0.96; fold changes relative to vehicle control ([9]; protein HNRNPK, HeLa): 1.02; fold changes relative to vehicle control ([10]; protein C1QBP, HeLa): 1; fold changes relative to vehicle control ([11]; captured protein IPO4, HeLa): 0.97; fold changes relative to vehicle control ([12]; captured protein GCDH, HeLa): 0.98; fold changes relative to vehicle control ([13]; protein RUVBL1, HeLa): 1.04"
NCCOCCOCC(=O)Nc1nc2ncc(CNc3ccc(C(=O)NC(CCC(=O)O)C(=O)O)cc3)nc2c(=O)[nH]1 (stereo not shown) [compound 6],1.44,0.92,0.97,1.18,1.25,0.97,1.03,1.24,1.13,0.92,1.04,0.62,1.07,–,–,–,–,–,–,–,–
NCCCNc1ccc(C(=O)NC(CCC(=O)O)C(=O)O)cc1 (stereo not shown) [compound 7],0.99,1.01,0.96,1.3,1.18,1.02,1.07,1.11,0.95,0.78,0.94,0.98,1.2,–,–,–,–,–,–,–,–
